Reference: ChEMBL document CHEMBL4342448, “Antcamphorols A-K, Cytotoxic and ROS Scavenging Triterpenoids from Antrodia camphorata” (J Nat Prod, 2020)

Experiments:
[1] = tested on: U-251; experiment: Cytotoxicity against human U251 cells incubated for 24 hrs by MTT assay; format: functional, cell-based; details: U-251, 24 h
[2] = tested on: MCF7; experiment: Cytotoxicity against human MCF7 cells incubated for 24 hrs by MTT assay; format: functional, cell-based; details: MCF7, 24 h
[3] = tested on: SW480; experiment: Cytotoxicity against human SW480 cells incubated for 24 hrs by MTT assay; format: functional, cell-based; details: SW480, 24 h
[4] = tested on: L02; experiment: Cytotoxicity against human L02 cells incubated for 24 hrs by MTT assay; format: cell-based; details: l02, 24 h
[5] = tested on: HUVEC; experiment: Induction of ROS scavenging activity in HUVEC assessed as reduction in high glucose-induced intracellular ROS level at 20 uM incubated for 6 hrs by DCFH-DA/Hoechst 33342 staining based assay relative to control; format: functional, Homo sapiens; set-up: scale not given: the % may be the effect or the level left
[6] = tested on: HUVEC; experiment: Induction of ROS scavenging activity in HUVEC assessed as reduction in high glucose-induced intracellular ROS level at 5 uM incubated for 6 hrs by DCFH-DA/Hoechst 33342 staining based assay relative to control; format: functional, Homo sapiens; set-up: scale not given: the % may be the effect or the level left

Row | SMILES | IC50 [1] | IC50 [2] | IC50 [3] | Activity [4] | Activity [5] | Activity [6]
1 | C=C(CC[C@@H](C)[C@H]1CC[C@H]2C3=C(C(=O)C[C@]12C)[C@@]1(C)CC[C@@H](O)[C@](C)(O)[C@@H]1C[C@@H]3O)[C@@H](C)C(=O)O | > 100 µM | > 100 µM | > 100 µM | Non-Toxic | – | –
2 | C=C(CC[C@@H](C)[C@H]1CC[C@H]2C3=C(C(=O)[C@H](O)[C@]12C)[C@@]1(C)CC[C@@H](O)[C@@H](C)[C@@H]1CC3=O)[C@@H](C)C(=O)O | > 100 µM | > 100 µM | > 100 µM | Non-Toxic | 70.5% | –
3 | C=C(CC[C@@H](C)[C@H]1CC[C@H]2C3=C(C(=O)[C@H](O)[C@]12C)[C@@]1(C)CC[C@@H](O)[C@@H](C)[C@@H]1CC3=O)[C@H](C)C(=O)O | > 100 µM | > 100 µM | > 100 µM | Non-Toxic | – | –
4 | C=C(CC[C@@H](C)[C@H]1CC[C@H]2C3=C(C(=O)C[C@]12C)[C@@]1(C)CCC(=O)[C@@H](C)[C@@H]1C[C@@H]3O)[C@H](C)C(=O)O | > 100 µM | > 100 µM | > 100 µM | Non-Toxic | – | –
5 | C=C(CC[C@@H](C)[C@H]1CC[C@H]2C3=C(C(=O)C[C@]12C)[C@@]1(C)CCC(=O)[C@@H](C)[C@@H]1C[C@@H]3O)[C@@H](C)C(=O)O | > 100 µM | > 100 µM | > 100 µM | Non-Toxic | – | –
6 | C=C(CC[C@@H](C)[C@H]1CC[C@H]2C3=C(C(=O)C[C@]12C)[C@@]1(C)CC[C@@H](O)[C@](C)(O)[C@@H]1C[C@@H]3O)[C@H](C)C(=O)O | > 100 µM | > 100 µM | > 100 µM | Non-Toxic | – | –
7 | C=C(CC[C@@H](C(=O)O)[C@H]1C[C@H](O)[C@@]2(C)C3=CC[C@H]4C(C)(C)[C@@H](O)CC[C@]4(C)C3=CC[C@]12C)C(C)C | > 100 µM | > 100 µM | > 100 µM | Non-Toxic | – | –
8 | C=C(CC[C@@H](C)[C@H]1CC[C@H]2C3=CC[C@H]4[C@H](C)C(=O)CC[C@]4(C)C3=C[C@H](O)[C@]12C)C(C)C | > 100 µM | > 100 µM | > 100 µM | Non-Toxic | 69.9% | –
9 | C=C(CC[C@@H](C)[C@H]1CC[C@H]2C3=CC[C@H]4[C@H](C)C(=O)CC[C@]4(C)C3=CC[C@]12C)C(C)C | > 100 µM | > 100 µM | > 100 µM | Non-Toxic | 63.9% | –
10 | C=C(CC[C@@H](C)[C@H]1CC[C@@]2(O)C3=C(C(=O)C[C@]12C)[C@@]1(C)CCC(=O)[C@@H](C)[C@@H]1CC3)C(C)C | > 100 µM | > 100 µM | > 100 µM | Non-Toxic | – | –
11 | C/C=C(\CO)CC[C@@H](C)[C@H]1CC[C@H]2C3=C(C(=O)C[C@]12C)[C@@]1(C)CC[C@@H](O)[C@](C)(O)[C@@H]1C[C@@H]3O | 9.2 µM | > 100 µM | > 100 µM | Non-Toxic | – | –
12 | CC1=C2C3=C(CC[C@]2(C)[C@@H]([C@H]2CC[C@](CO)(C(C)C)OC2)C1)[C@@]1(C)CC[C@H](O)C(C)(C)[C@@H]1CC3 | > 100 µM | > 100 µM | > 100 µM | Non-Toxic | – | –
13 | C=C(CC[C@@H](C)[C@H]1CC[C@H]2C3=C(C(=O)C[C@]12C)[C@@]1(C)CC[C@@H](O)[C@H](O)[C@@H]1C[C@@H]3O)[C@@H](C)C(=O)O | > 100 µM | > 100 µM | > 100 µM | Non-Toxic | – | –
14 | C=C(CC[C@@H](C)[C@H]1CC[C@H]2C3=C(C(=O)C[C@]12C)[C@@]1(C)CC[C@@H](O)[C@H](O)[C@@H]1C[C@@H]3O)[C@H](C)C(=O)O | > 100 µM | > 100 µM | > 100 µM | Non-Toxic | – | –
15 | C=C(CC[C@@H](C)[C@H]1CC[C@H]2C3=CC[C@H]4[C@H](C)[C@@H](O)CC[C@]4(C)C3=C[C@@H](O)[C@]12C)C(C)C | 15.6 µM | 8.1 µM | 16.4 µM | Non-Toxic | – | –
16 | C=C(CC[C@@H](C)[C@H]1CC[C@H]2C3=CC[C@H]4[C@H](C)C(=O)CC[C@]4(C)C3=C[C@@H](O)[C@]12C)C(C)C | > 100 µM | > 100 µM | > 100 µM | Non-Toxic | – | –
17 | C=C(CC[C@@H](C)[C@H]1CC[C@H]2C3=C(C(=O)C[C@]12C)[C@@]1(C)CCC(=O)[C@@H](C)[C@@H]1C[C@H]3O)C(C)C | > 100 µM | > 100 µM | > 100 µM | Non-Toxic | 66.7% | –
18 | C/C=C(/CO)CC[C@@H](C)[C@H]1CC[C@H]2C3=C(C(=O)C[C@]12C)[C@@]1(C)CC[C@@H](O)[C@](C)(O)[C@@H]1C[C@@H]3O | 10.4 µM | > 100 µM | > 100 µM | Non-Toxic | – | –
19 | C=C1CC[C@H](O)C/C1=C/C=C1\CCC[C@]2(C)[C@@H]([C@H](C)CCCC(C)C)CC[C@@H]12 [CHOLECALCIFEROL] | – | – | – | – | – | 65.4%
20 | C=C(CC[C@@H](C(=O)O)[C@H]1CC[C@@]2(C)C3=CC[C@H]4C(C)(C)[C@@H](O)CC[C@]4(C)C3=CC[C@]12C)C(C)C [DEHYDROEBURICOIC ACID] | > 100 µM | > 100 µM | > 100 µM | Non-Toxic | 69.8% | –
21 | C=C(CC[C@@H](C(=O)O)[C@H]1CC[C@@]2(C)C3=C(CC[C@]12C)[C@@]1(C)CC[C@H](O)C(C)(C)[C@@H]1CC3)C(C)C [EBURICOIC ACID] | > 100 µM | > 100 µM | > 100 µM | Non-Toxic | – | –
22 | CCc1c2c(nc3ccc(OC(=O)N4CCC(N5CCCCC5)CC4)cc13)-c1cc3c(c(=O)n1C2)COC(=O)[C@]3(O)CC [IRINOTECAN] | – | 0.8 µM | – | – | – | –
23 | C=C(CC[C@@H](C(=O)O)[C@H]1C[C@H](O)[C@@]2(C)C3=C(CC[C@]12C)[C@@]1(C)CC[C@H](O)C(C)(C)[C@@H]1CC3)C(C)C [SULFURENIC ACID] | > 100 µM | > 100 µM | > 100 µM | Non-Toxic | – | –
24 | Cn1nnc2c(C(N)=O)ncn2c1=O [TEMOZOLOMIDE] | 36.4 µM | – | – | – | – | –
